Measurements reported in patent US20120101167A1, “Treatment of ocular and cerebral ischemia” (priority 2010, published 2012).

Assays:
glaucomatous monkeys = test: IOP and PBF responses in glaucomatous monkeys to a single topical unilateral application; type: in vivo, monkey; conditions: single topical unilateral 0.05 mg, four glaucomatous monkeys
Protocol: (§1) 1. The Intraocular pressure and pulse form. The Langham pneumatic digitized tonometer was used to make continuous recordings of the intraocular pressure and its pulsatile character. This recording system provides the steady state IOP and the form of the IOP pulse with an accuracy equal to a manometric recording. The pulsatile ocular blood flow is evaluated from the amplitude of the individual pulses using the known pressure/volume relation of living human eyes. Langham, M. E., Farrell, R. A., O'Brien V., Silver, D. M., Non-Invasive Measurement of Pulsatile Ocular Blood Flow in the Human Eye (Eds., Lambrou G. N., Greve E.) pp. 93-99; Kugler and Ghedini, Amsterdam (1989).

conscious rabbits = test: Time course of IOP and ocular pulsatile blood flow in conscious rabbits after single topical application; type: in vivo, rabbit; conditions: six conscious rabbits; for Intraocular Pressure (IOP), Treated / Pulsatile Blood flow, Treated: treated eye, single topical 0.025% aqueous solution pH 7.40; for Intraocular Pressure (IOP), Difference / Pulsatile Blood flow, Difference: treated minus control eye, single topical 0.025% solution
Protocol: as §1

healthy human subjects = test: Steady state IOP and pulsatile blood flow in healthy human subjects given repeated topical unilateral applications; type: in vivo; conditions: five healthy human subjects; for Intraocular Pressure (IOP), Treated / Pulsatile Blood flow, Treated: treated eye, 30 μl 0.025% solution topical unilateral at 0, 12, ... 96 hr; for Intraocular Pressure (IOP), Difference / Pulsatile Blood flow, Difference: treated minus control eye, 0.025% solution every 12 hr
Protocol: as §1

Which results are given for `CN[C@H](C)[C@@H](O)c1ccc(OC(=O)C(C)(C)C)c(OC(=O)C(C)(C)C)c1` (single isomer, unassigned) [(+) erythro isomer of DPαMeEp, reference compound]?
Intraocular Pressure (IOP), Treated (glaucomatous monkeys; Table 5, treated eye, 0 hr): 36.8 ± 1.94 mmHg; Pulsatile Blood flow, Treated (glaucomatous monkeys; Table 5, treated eye, 0 hr): 564 ± 16 µL/min; Intraocular Pressure (IOP), Treated (glaucomatous monkeys; Table 5, treated eye, 1 hr): 36.3 ± 3.17 mmHg; Pulsatile Blood flow, Treated (glaucomatous monkeys; Table 5, treated eye, 1 hr): 555 ± 26 µL/min; Intraocular Pressure (IOP), Treated (glaucomatous monkeys; Table 5, treated eye, 3 hr): 35.0 ± 2.28 mmHg; Pulsatile Blood flow, Treated (glaucomatous monkeys; Table 5, treated eye, 3 hr): 575 ± 22 µL/min; Intraocular Pressure (IOP), Treated (glaucomatous monkeys; Table 5, treated eye, 6 hr): 36.8 ± 3.31 mmHg; Pulsatile Blood flow, Treated (glaucomatous monkeys; Table 5, treated eye, 6 hr): 564 ± 23 µL/min; Intraocular Pressure (IOP), Treated (glaucomatous monkeys; Table 5, treated eye, 24 hr): 34.6 ± 2.76 mmHg; Pulsatile Blood flow, Treated (glaucomatous monkeys; Table 5, treated eye, 24 hr): 549 ± 27 µL/min

`CN[C@@H](C)[C@H](O)c1ccc(OC(=O)C(C)(C)C)c(OC(=O)C(C)(C)C)c1` (single isomer, unassigned) [(−) erythro isomer of DPαMeEp, dipivalyl α MeEp] was tested. Which “Intraocular Pressure (IOP), Treated” value (conscious rabbits; 0 hr) did it give?
The value was 19.4 ± 0.7 mmHg.

What about the “Pulsatile Blood flow, Treated” value (conscious rabbits; 0 hr) of the same molecule?
The value was 651 ± 28 µL/min.

And the “Intraocular Pressure (IOP), Treated” value (conscious rabbits; 1 hr)?
The value was 13.0 ± 0.5 mmHg.

And the “Pulsatile Blood flow, Treated” value (conscious rabbits; 1 hr)?
Its value is 880 ± 32 µL/min.

And the “Intraocular Pressure (IOP), Treated” value (conscious rabbits; 3 hr)?
The value was 12.8 ± 0.4 mmHg.

And the “Pulsatile Blood flow, Treated” value (conscious rabbits; 3 hr)?
Its value is 957 ± 33 µL/min.

And the “Intraocular Pressure (IOP), Treated” value (conscious rabbits; 5 hr)?
The value was 13.8 ± 0.4 mmHg.

What about the “Pulsatile Blood flow, Treated” value (conscious rabbits; 5 hr) of the same molecule?
The value was 963 ± 30 µL/min.

And the “Intraocular Pressure (IOP), Treated” value (conscious rabbits; 12 hr)?
The value was 15.6 ± 0.6 mmHg.

And the “Pulsatile Blood flow, Treated” value (conscious rabbits; 12 hr)?
Its value is 924 ± 29 µL/min.

And the “Intraocular Pressure (IOP), Treated” value (conscious rabbits; 24 hr)?
The value was 19.7 ± 0.7 mmHg.

And the “Pulsatile Blood flow, Treated” value (conscious rabbits; 24 hr)?
The value was 682 ± 41 µL/min.

What about the “Intraocular Pressure (IOP), Difference” value (conscious rabbits; 0 hr) of the same molecule?
Its value is −0.1 ± 0.1 mmHg.

And the “Pulsatile Blood flow, Difference” value (conscious rabbits; 0 hr)?
Its value is 3 ± 3 µL/min.

And the “Intraocular Pressure (IOP), Difference” value (conscious rabbits; 1 hr)?
The value was −6.4 ± 0.3 mmHg.

And the “Pulsatile Blood flow, Difference” value (conscious rabbits; 1 hr)?
Its value is 255 ± 24 µL/min.

And the “Intraocular Pressure (IOP), Difference” value (conscious rabbits; 3 hr)?
The value was −6.5 ± 0.4 mmHg.

And the “Pulsatile Blood flow, Difference” value (conscious rabbits; 3 hr)?
The value was 332 ± 29 µL/min.

And the “Intraocular Pressure (IOP), Difference” value (conscious rabbits; 5 hr)?
Its value is −5.3 ± 0.4 mmHg.

And the “Pulsatile Blood flow, Difference” value (conscious rabbits; 5 hr)?
Its value is 328 ± 24 µL/min.

And the “Intraocular Pressure (IOP), Difference” value (conscious rabbits; 12 hr)?
Its value is −3.9 ± 0.3 mmHg.

And the “Pulsatile Blood flow, Difference” value (conscious rabbits; 12 hr)?
Its value is 290 ± 31 µL/min.

What about the “Intraocular Pressure (IOP), Difference” value (conscious rabbits; 24 hr) of the same molecule?
Its value is 0 ± 0 mmHg.

What about the “Pulsatile Blood flow, Difference” value (conscious rabbits; 24 hr) of the same molecule?
The value was 10 ± 4 µL/min.

And the “Intraocular Pressure (IOP), Treated” value (healthy human subjects; 0 hr)?
The value was 15.5 ± 0.5 mmHg.

What about the “Pulsatile Blood flow, Treated” value (healthy human subjects; 0 hr) of the same molecule?
The value was 675 ± 35 µL/min.

What about the “Intraocular Pressure (IOP), Treated” value (healthy human subjects; 2 hr) of the same molecule?
Its value is 12.0 ± 0.7 mmHg.

What about the “Pulsatile Blood flow, Treated” value (healthy human subjects; 2 hr) of the same molecule?
Its value is 818 ± 30 µL/min.

What about the “Intraocular Pressure (IOP), Treated” value (healthy human subjects; 6 hr) of the same molecule?
The value was 13.2 ± 9.2 mmHg.

And the “Pulsatile Blood flow, Treated” value (healthy human subjects; 6 hr)?
The value was 802 ± 17 µL/min.

And the “Intraocular Pressure (IOP), Treated” value (healthy human subjects; 12 hr)?
Its value is 14.0 ± 0.4 mmHg.

What about the “Pulsatile Blood flow, Treated” value (healthy human subjects; 12 hr) of the same molecule?
The value was 780 ± 15 µL/min.

What about the “Intraocular Pressure (IOP), Treated” value (healthy human subjects; 24 hr) of the same molecule?
Its value is 15.0 ± 0.4 mmHg.

What about the “Pulsatile Blood flow, Treated” value (healthy human subjects; 24 hr) of the same molecule?
Its value is 758 ± 30 µL/min.

And the “Intraocular Pressure (IOP), Treated” value (healthy human subjects; 28 hr)?
Its value is 12.4 ± 0.5 mmHg.

And the “Pulsatile Blood flow, Treated” value (healthy human subjects; 28 hr)?
The value was 790 ± 34 µL/min.

What about the “Intraocular Pressure (IOP), Treated” value (healthy human subjects; 52 hr) of the same molecule?
The value was 12.8 ± 0.4 mmHg.

And the “Pulsatile Blood flow, Treated” value (healthy human subjects; 52 hr)?
The value was 764 ± 14 µL/min.

And the “Intraocular Pressure (IOP), Treated” value (healthy human subjects; 78 hr)?
The value was 11.8 ± 0.5 mmHg.

What about the “Pulsatile Blood flow, Treated” value (healthy human subjects; 78 hr) of the same molecule?
The value was 832 ± 24 µL/min.

And the “Intraocular Pressure (IOP), Treated” value (healthy human subjects; 100 hr)?
Its value is 12.7 ± 0.4 mmHg.

And the “Pulsatile Blood flow, Treated” value (healthy human subjects; 100 hr)?
Its value is 812 ± 15 µL/min.

And the “Intraocular Pressure (IOP), Difference” value (healthy human subjects; 0 hr)?
Its value is 0 ± 0.1 mmHg.

And the “Pulsatile Blood flow, Difference” value (healthy human subjects; 0 hr)?
The value was 4 ± 6 µL/min.

What about the “Intraocular Pressure (IOP), Difference” value (healthy human subjects; 2 hr) of the same molecule?
Its value is −3.4 ± 3.4 mmHg.

What about the “Pulsatile Blood flow, Difference” value (healthy human subjects; 2 hr) of the same molecule?
Its value is 127 ± 27 µL/min.

What about the “Intraocular Pressure (IOP), Difference” value (healthy human subjects; 6 hr) of the same molecule?
Its value is −2.6 ± 2.6 mmHg.

What about the “Pulsatile Blood flow, Difference” value (healthy human subjects; 6 hr) of the same molecule?
The value was 131 ± 14 µL/min.

And the “Intraocular Pressure (IOP), Difference” value (healthy human subjects; 12 hr)?
Its value is −1.8 ± 1.1 mmHg.

What about the “Pulsatile Blood flow, Difference” value (healthy human subjects; 12 hr) of the same molecule?
Its value is 104 ± 12 µL/min.

What about the “Intraocular Pressure (IOP), Difference” value (healthy human subjects; 24 hr) of the same molecule?
Its value is −0.6 ± 0.3 mmHg.

And the “Pulsatile Blood flow, Difference” value (healthy human subjects; 24 hr)?
Its value is 82 ± 7 µL/min.

What about the “Intraocular Pressure (IOP), Difference” value (healthy human subjects; 28 hr) of the same molecule?
Its value is 2.9 ± 0.4 mmHg.

What about the “Pulsatile Blood flow, Difference” value (healthy human subjects; 28 hr) of the same molecule?
The value was 132 ± 19 µL/min.

What about the “Intraocular Pressure (IOP), Difference” value (healthy human subjects; 52 hr) of the same molecule?
Its value is −2.7 ± 0.6 mmHg.

And the “Pulsatile Blood flow, Difference” value (healthy human subjects; 52 hr)?
Its value is 110 ± 24 µL/min.

And the “Intraocular Pressure (IOP), Difference” value (healthy human subjects; 78 hr)?
The value was −3.7 ± 0.4 mmHg.

And the “Pulsatile Blood flow, Difference” value (healthy human subjects; 78 hr)?
Its value is 156 ± 8 µL/min.

And the “Intraocular Pressure (IOP), Difference” value (healthy human subjects; 100 hr)?
Its value is 3.3 ± 0.4 mmHg.

And the “Pulsatile Blood flow, Difference” value (healthy human subjects; 100 hr)?
Its value is 138 ± 8.5 µL/min.

And the “Intraocular Pressure (IOP), Treated” value (glaucomatous monkeys; Table 4, treated glaucomatous eye, 0 hr)?
Its value is 33.4 ± 1.94 mmHg.

And the “Intraocular Pressure (IOP), Treated” value (glaucomatous monkeys; Table 4, treated glaucomatous eye, 1 hr)?
The value was 26.3 ± 3.17 mmHg.

And the “Intraocular Pressure (IOP), Treated” value (glaucomatous monkeys; Table 4, treated glaucomatous eye, 3 hr)?
Its value is 21.7 ± 3.77 mmHg.

What about the “Intraocular Pressure (IOP), Treated” value (glaucomatous monkeys; Table 4, treated glaucomatous eye, 8 hr) of the same molecule?
Its value is 21.9 ± 3.31 mmHg.

What about the “Intraocular Pressure (IOP), Treated” value (glaucomatous monkeys; Table 4, treated glaucomatous eye, 10 hr) of the same molecule?
The value was 22.1 ± 2.76 mmHg.

What about the “Intraocular Pressure (IOP), Treated” value (glaucomatous monkeys; Table 4, treated glaucomatous eye, 12 hr) of the same molecule?
The value was 21.8 ± 2.61 mmHg.

What about the “Intraocular Pressure (IOP), Treated” value (glaucomatous monkeys; Table 4, treated glaucomatous eye, 24 hr) of the same molecule?
The value was 24.6 ± 2.37 mmHg.

And the “Intraocular Pressure (IOP), Treated” value (glaucomatous monkeys; Table 4, treated glaucomatous eye, 26 hr)?
Its value is 26.3 ± 2.16 mmHg.

What about the “Intraocular Pressure (IOP), Treated” value (glaucomatous monkeys; Table 4, treated glaucomatous eye, 28 hr) of the same molecule?
Its value is 25.0 ± 2.09 mmHg.

What about the “Intraocular Pressure (IOP), Treated” value (glaucomatous monkeys; Table 4, treated glaucomatous eye, 30 hr) of the same molecule?
The value was 25.0 ± 2.28 mmHg.

What about the “Intraocular Pressure (IOP), Treated” value (glaucomatous monkeys; Table 4, treated glaucomatous eye, 36 hr) of the same molecule?
The value was 27.3 ± 2.09 mmHg.
